# Where a name gives a salt, the structure may show the parent alone.
# How the values were obtained:
# CatG = target: T1, CatG (Homo sapiens, UniProt P08311); assay: Labeling and detection of recombinant proteases (SDS-PAGE blot, NeutrAvidin-HRP); assay type: binding; details: 1 µM ABP, 100 ng protease, 30 min 37°C, denaturing SDS-PAGE blot
# T1 sequence (P08311 21-255): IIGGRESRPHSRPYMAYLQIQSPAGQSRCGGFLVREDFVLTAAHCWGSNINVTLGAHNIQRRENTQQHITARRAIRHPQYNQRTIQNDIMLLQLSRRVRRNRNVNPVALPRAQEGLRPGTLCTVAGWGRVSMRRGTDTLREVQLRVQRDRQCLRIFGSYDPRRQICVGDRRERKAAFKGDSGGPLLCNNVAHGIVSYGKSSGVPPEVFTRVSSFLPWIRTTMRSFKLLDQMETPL
# Description: (§1) Recombinant proteases (100 ng) were labeled with 1 µM ABP in reaction buffer in a final volume of 40 µL for 30 min at 37°C. After the addition of 4X Laemmli buffer (Bio-Rad, GmbH) supplemented with Bond-Breaker Tris (2-CarboxyEthyl)Phosphine (TCEP) Solution (Thermo Scientific, United States), the samples were heated at 95°C for 5 min and loaded into 4%–20% Mini-Protean TGX precast gels (Bio-Rad, GmbH). After electrophoresis, the proteins were blotted onto nitrocellulose membranes using the Trans-Blot Transfer Turbo System (Bio-Rad). Membranes were incubated with NeutrAvidin-HRP (1:50,000), and bands were visualized with ECL Select Western Blot Detection Reagent (GE Healthcare Life Sciences) by chemiluminescence (Chemidoc XRS; Bio-Rad). The molecular weight of each band was determined with the Image Lab Software v5 (Bio-Rad).
# (§2) To further characterize the newly synthesized compounds and their potential to be used as ABPs, nine desthiobiotin probes were used for the labeling and detection of recombinant proteases. The arginine (45b–46b) and the proline-lysine (58b) desthiobiotin probes were used as reference compounds. Whereas the benzyl guanidine (50b, 52b, 54b) and phenyl guanidine probes (55b–57b) were used to determine whether the mechanism of inhibition (reversible or irreversible) is an obstacle to visualize the proteases. Samples of human recombinant proteases (trypsin-3, β-tryptase, and CatG) were incubated with the different probes before electrophoresis and detection with NeutrAvidin-HRP on a Western blot. Figure 7A illustrates the ability of the desthiobiotin probes to indicate the presence of the corresponding trypsin-like enzyme. […] This effect can be explained due to the strong interactions between the active site of the protease and the probes. The high affinity and the slow off-rates were described in Table 5 by the equilibrium constants KI*. Assuming that there is an excess of inhibitor over enzyme, the free inhibitor concentration must be very low, lower than the KI*, in order for the complex to dissociate. Therefore, the high affinity complex E*I survives during the whole process of labeling, gel electrophoresis, and visualization.
# Trypsin-3 = target: T2, Trypsin-3 (Homo sapiens, UniProt P35030); assay: as above; assay type: binding; details: 1 µM ABP, 100 ng protease, 30 min 37°C, denaturing SDS-PAGE blot
# T2 sequence (P35030 1-304): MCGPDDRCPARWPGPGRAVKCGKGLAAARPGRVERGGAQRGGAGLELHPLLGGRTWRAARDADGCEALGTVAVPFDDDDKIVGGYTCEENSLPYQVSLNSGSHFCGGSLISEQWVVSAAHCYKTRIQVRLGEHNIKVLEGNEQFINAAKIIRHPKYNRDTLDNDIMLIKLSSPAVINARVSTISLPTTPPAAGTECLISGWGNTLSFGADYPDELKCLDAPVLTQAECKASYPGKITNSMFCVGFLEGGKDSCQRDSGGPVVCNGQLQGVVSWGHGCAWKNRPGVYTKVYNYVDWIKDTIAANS
# Description: as §1, §2
Structure (SMILES),labeling of recombinant CatG (CatG),labeling of recombinant trypsin-3 (Trypsin-3)
CC(=O)Nc1ccc(OP(=O)(Oc2ccc(NC(C)=O)cc2)C(Cc2ccc(NC(=N)N)cc2)NC(=O)OCCCc2cn(CCOCCOCCOCCNC(=O)CCCCC[C@H]3NC(=O)N[C@H]3C)nn2)cc1 (stereo partly drawn) [52b],can label,can label
"C[C@@H]1NC(=O)N[C@@H]1CCCCCC(=O)NCCOCCOCCOCCn1cc(CCCOC(=O)NC(Cc2ccc(NC(=N)N)cc2)P(=O)(Oc2ccccc2)Oc2ccccc2)nn1 (stereo partly drawn) [50b, 3-(1-(18-((4R,5S)-5-methyl-2-oxoimidazolidin-4-yl)-13-oxo-3,6,9-trioxa-12-azaoctadecyl)-1H-1,2,3-triazol-4-yl)propyl (1-(diphenoxyphosphoryl)-2-(4-guanidinophenyl)ethyl)carbamate trifluoroacetate salt]",can label,can label
C[C@@H]1NC(=O)N[C@@H]1CCCCCC(=O)NCCOCCOCCOCCn1cc(CCCOC(=O)NC(Cc2ccc(NC(=N)N)cc2)P(=O)(Oc2ccc(Cl)cc2)Oc2ccc(Cl)cc2)nn1 (stereo partly drawn) [54b],can label,can label
